The values that follow come from ChEMBL document CHEMBL5506009 (Eur J Med Chem, 2024).

Assay [1] is described as follows: Inhibition of wild type influenza A virus H5N1 A/Anhui/1/2005 Neuraminidase using MUNANA as substrate.
The subject of another assay is Influenza A virus. Briefly: microbe, parasite or virus in culture. The settings on record: H5N1.

The IC50 is the concentration that inhibits the measured activity by half. A higher IC50 goes with a need for much substance. The EC50 is the concentration at which the effect is half-maximal. Read a high EC50 as lower potency in that assay.

Regarding `O=C(CSc1nnc(-c2ccc3ncccc3c2)o1)NCc1ccc(Cl)c(Cl)c1`, in assay [1], the IC50 worked out at 0.47 µM. In the assay on Influenza A virus, the EC50 turned out to be 0.11 µM.
On to `COc1cc(NC(=O)CSc2nnc(-c3ccc4ncccc4c3)o2)cc(OC)c1OC`, for which it took 10.4 µM to reach half-maximal inhibition in assay [1] (IC50).
The compound `COc1cccc(CCNC(=O)CSc2nnc(COc3ccc4ccccc4c3)o2)c1` came in with an IC50 in assay [1] of 2.84 µM.
As to `O=C(CSc1nnc(-c2ccc3ncccc3c2)o1)Nc1ccc(C(F)(F)F)cn1`, the IC50 in assay [1] was 1.96 µM.
Same read-out and setting: the value for `O=C(CSc1nnc(-c2ccc3ncccc3c2)o1)NCCc1ccc2c(c1)OCO2` was 81 µM; that for `O=C(CSc1nnc(COc2ccc3ccccc3c2)o1)NCc1ccc(Cl)c(Cl)c1` was 0.86 µM; that for `O=C(CSc1nnc(-c2ccc3ncccc3c2)o1)NCc1ccc(F)cc1` was 1.75 µM.
On the same count and under the same terms, the value for `COc1ccc(CCNC(=O)CSc2nnc(COc3ccc4ccccc4c3)o2)cc1OC` was 2.82 µM; that for `O=C(CSc1nnc(COc2ccc3ccccc3c2)o1)Nc1ccc(C(F)(F)F)cn1` was 22.7 µM; that for `O=C(CSc1nnc(COc2ccc3ccccc3c2)o1)NCCc1cccc(F)c1` was 1.16 µM.
The compound `O=C(CSc1nnc(-c2ccc3ncccc3c2)o1)NCCc1cccc(F)c1` yielded an IC50 in assay [1] of 10.7 µM.
The same measure, in the same setting: the value for `Cc1cc([N+](=O)[O-])ccc1NC(=O)CSc1nnc(COc2ccc3ccccc3c2)o1` was 1.35 µM; that for `COc1cc(NC(=O)CSc2nnc(COc3ccc4ccccc4c3)o2)cc(OC)c1OC` was 43.8 µM.
In assay [1], `COc1cccc(CCNC(=O)CSc2nnc(-c3ccc4ncccc4c3)o2)c1` yielded an IC50 of 2.51 µM. Against the preceding compound, the IC50 is about 17-fold lower.
For `O=C(CSc1nnc(COc2ccc3ccccc3c2)o1)NCc1ccc(F)cc1`, in assay [1], the IC50 came out at 0.14 µM. In the assay on Influenza A virus, this compound gave a concentration giving a half-maximal response (EC50) of 3.7 µM.
With `O=C(CSc1nnc(COc2ccc3ccccc3c2)o1)NCCc1ccc2c(c1)OCO2`, in assay [1], the IC50 was found to be 25.6 µM.
Still for that read-out and setting: the value for `COc1ccc(CCNC(=O)CSc2nnc(-c3ccc4ncccc4c3)o2)cc1OC` was 2.65 µM.
`CCC(CC)O[C@@H]1C=C(C(=O)O)C[C@H](N)[C@H]1NC(C)=O` [OSELTAMIVIR CARBOXYLATE]: in assay [1], the midpoint of inhibition, the IC50, lay at 0.31 µM. This compound registered an EC50 with Influenza A virus of 1.47 µM.
